# Results taken from patent US20080003627A1, “SYSTEM FOR BIOSYNTHESIS OF FIREFLY LU[…] WITH NATURAL L-CYSTEINE OR DERIVATIVES THEREOF AND LU[…] SOLUTIONS CONTAINING THE SYSTEM” (NATIONAL INSTITUTE OF ADVANCED INDUSTRIAL SCIENCE AND …, priority 2004, published 2008).
# Molecular target: firefly luciferase (Photinus pyralis, UniProt P08659)
# Assay: firefly luminescence reaction (luminescence activity as substrate)
# Type: biochemical
# Conditions: ATP, Mg ion, luminometer
# Method: In a buffer solution (0.1 M Tris-HCl, pH 8), 10 mM 2-cyano-6-hydroxybenzothiazole, 1 mM L-cysteine, 10 mM COA-SH, 0.1 mg/mL of firefly luciferase and 100 units/mL of swine liver esterase were dissolved, 10 μL of the mixture was dispensed in a tube for measuring the luminescence, and a total volume was made 100 μL by adding the same buffer. An ATP—Mg solution (100 μL, 6 mM ATP—Na, 16 mM MgSO4) was injected thereto to initiate a luminescence reaction, and a luminescence amount was measured using a luminometer AB2200 supplied from ATTO Corporation.
# Chain of firefly luciferase (P08659 whole entry): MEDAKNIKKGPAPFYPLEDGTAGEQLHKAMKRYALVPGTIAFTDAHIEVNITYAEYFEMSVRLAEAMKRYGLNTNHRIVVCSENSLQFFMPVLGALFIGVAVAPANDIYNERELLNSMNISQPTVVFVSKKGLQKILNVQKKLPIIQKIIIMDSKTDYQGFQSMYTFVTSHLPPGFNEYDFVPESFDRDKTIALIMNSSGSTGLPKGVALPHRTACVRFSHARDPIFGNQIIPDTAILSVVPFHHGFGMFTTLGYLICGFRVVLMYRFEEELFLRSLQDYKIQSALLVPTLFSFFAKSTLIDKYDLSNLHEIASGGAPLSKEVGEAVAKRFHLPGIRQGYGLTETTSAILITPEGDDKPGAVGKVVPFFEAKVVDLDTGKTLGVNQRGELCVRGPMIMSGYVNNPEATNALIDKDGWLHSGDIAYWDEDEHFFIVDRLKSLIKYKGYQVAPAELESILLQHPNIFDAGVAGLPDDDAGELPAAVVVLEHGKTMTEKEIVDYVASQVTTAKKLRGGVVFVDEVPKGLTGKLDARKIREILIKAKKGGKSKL
smiles,measurement,value
CC(C)(COP(=O)(O)OP(=O)(O)OCC1OC(n2cnc3c(N)ncnc32)C(O)C1OP(=O)(O)O)C(O)C(=O)NCCC(=O)NCCSC(=O)C1CSC(c2nc3ccc(O)cc3s2)=N1 (stereo not shown) [luciferyl-CoA],luminescence activity (produces luminescence with luciferase),does not produce the luminescence
